Here are results for one molecule from article PMC7693034, “Identification of Amino Acid Residues Responsible for C−H Activation in Type‐III Copper Enzymes by Generating Tyrosinase Activity in a Catechol Oxidase” (Angewandte Chemie (International Ed. in English), 2020).

SMILES strings stand for the structures. Numbering of substitutions follows the chain as printed.

Holding throughout (experiment): enzyme kinetics, diphenolase activity
What all share (assay type): biochemical

Assay [1] has as its target T1, CgAUS (aurone synthase from Coreopsis grandiflora) (Coreopsis grandiflora, UniProt A0A075DN54, T338D/R342D).
T1 construct: recombinant from E. coli, purified to homogeneity
T1 sequence (A0A075DN54 86-602 T338D/R342D): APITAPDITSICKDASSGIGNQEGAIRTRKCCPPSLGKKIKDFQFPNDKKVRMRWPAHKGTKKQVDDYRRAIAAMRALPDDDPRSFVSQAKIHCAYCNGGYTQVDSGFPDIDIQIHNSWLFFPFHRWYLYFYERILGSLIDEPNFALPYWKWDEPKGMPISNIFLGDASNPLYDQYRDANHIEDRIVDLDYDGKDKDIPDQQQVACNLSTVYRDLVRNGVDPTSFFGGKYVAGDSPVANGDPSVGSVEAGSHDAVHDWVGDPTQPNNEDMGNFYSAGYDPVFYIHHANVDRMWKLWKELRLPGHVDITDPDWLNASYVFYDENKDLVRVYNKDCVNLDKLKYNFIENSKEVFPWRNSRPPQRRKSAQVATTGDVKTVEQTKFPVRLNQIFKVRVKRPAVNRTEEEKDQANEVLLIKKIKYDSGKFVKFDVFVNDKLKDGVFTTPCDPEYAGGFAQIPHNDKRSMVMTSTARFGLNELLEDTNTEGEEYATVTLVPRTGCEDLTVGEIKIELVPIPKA
The following applies: type-III copper enzyme; read-out: Dopamine / K m. The source says:
(§1) enzyme kinetics, diphenolase activity on CgAUS (aurone synthase from Coreopsis grandiflora)

Assay [2] deals with T2, CgAUS (aurone synthase from Coreopsis grandiflora) (Coreopsis grandiflora, UniProt A0A075DN54).
T2 construct: recombinant from E. coli, purified to homogeneity
T2 sequence (A0A075DN54 86-602): T1 sequence (A0A075DN54 86-602 T338D/R342D) with D253T, D257R
The following applies: type-III copper enzyme, copper content 46.1%; read-out: Dopamine / K m.
Excerpt: as §1

Assay [3] deals with T3, CgAUS (aurone synthase from Coreopsis grandiflora) (Coreopsis grandiflora, UniProt A0A075DN54, T338D).
T3 construct: recombinant from E. coli, purified to homogeneity
T3 sequence (A0A075DN54 86-602 T338D): T1 sequence (A0A075DN54 86-602 T338D/R342D) with D257R
The following applies: type-III copper enzyme; read-out: Dopamine / K m.
Excerpt: as §1

Assay [4] deals with T4, CgAUS (aurone synthase from Coreopsis grandiflora) (Coreopsis grandiflora, UniProt A0A075DN54, C182S/T338D/R342D).
T4 construct: recombinant from E. coli, purified to homogeneity
T4 sequence (A0A075DN54 86-602 C182S/T338D/R342D): T1 sequence (A0A075DN54 86-602 T338D/R342D) with C97S
The following applies: type-III copper enzyme; read-out: Dopamine / K m.
Excerpt: as §1

The target of assay [5] is T5, CgAUS (aurone synthase from Coreopsis grandiflora) (Coreopsis grandiflora, UniProt A0A075DN54, R342D).
T5 construct: recombinant from E. coli, purified to homogeneity
T5 sequence (A0A075DN54 86-602 R342D): T1 sequence (A0A075DN54 86-602 T338D/R342D) with D253T
Conditions: type-III copper enzyme; read-out: Dopamine / K m.
Excerpt: as §1

Assay [6] deals with T6, CgAUS (aurone synthase from Coreopsis grandiflora) (Coreopsis grandiflora, UniProt A0A075DN54, C182S).
T6 construct: recombinant from E. coli, purified to homogeneity
T6 sequence (A0A075DN54 86-602 C182S): T1 sequence (A0A075DN54 86-602 T338D/R342D) with C97S, D253T, D257R
The following applies: type-III copper enzyme; read-out: Dopamine / K m.
Excerpt: as §1

As for `NCCc1ccc(O)c(O)c1` [dopamine], the Km is 240 ± 20 µM in assay [1]; 8630 ± 280 µM in assay [2]; 1930 ± 120 µM in assay [3]; 60 µM in assay [4]; 1260 ± 130 µM in assay [5]; 1260 ± 40 µM in assay [6].
